Measurements: PubChem BioAssay (NCI)
Several values for one entry are separate records, joined by “and”; a condition that tells them apart may be missing. Equal values may be shown once.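 Cells were grown in 96-well plates and exposed to each compound for 48 hours at five concentrations; endpoints were interpolated linearly between bracketing concentrations, or set to the highest concentration if not reached. Here, GI50 denotes the concentration required for 50% inhibition of growth. TGI: total growth inhibition.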

Assays:
Test in all cases: NCI tumour cell line growth inhibition, 48 h
HL-60(TB) leukemia = system: HL-60(TB) leukemia
HS 578T breast = system: HS 578T breast
IGROV1 ovarian = system: IGROV1 ovarian
NCI-H460 lung = system: NCI-H460 lung
NCI/ADR-RES ovarian = system: NCI/ADR-RES ovarian
RXF 393 renal = system: RXF 393 renal
SF-268 CNS = system: SF-268 CNS
SK-MEL-2 melanoma = system: SK-MEL-2 melanoma
UACC-257 melanoma = system: UACC-257 melanoma
UO-31 renal = system: UO-31 renal

Structure (SMILES) | GI50 (HL-60(TB) leukemia) [µM] | TGI (HL-60(TB) leukemia) | GI50 (HS 578T breast) [µM] | TGI (HS 578T breast) | GI50 (IGROV1 ovarian) | TGI (IGROV1 ovarian) | GI50 (NCI-H460 lung) | TGI (NCI-H460 lung) | GI50 (NCI/ADR-RES ovarian) | TGI (NCI/ADR-RES ovarian) | GI50 (RXF 393 renal) | TGI (RXF 393 renal) | GI50 (SF-268 CNS) | TGI (SF-268 CNS) | GI50 (SK-MEL-2 melanoma) [µM] | TGI (SK-MEL-2 melanoma) | GI50 (UACC-257 melanoma) | TGI (UACC-257 melanoma) | GI50 (UO-31 renal) | TGI (UO-31 renal)
Nc1c2c(c(O)c3c1=C(CO)C=N3)=NCCS2=O (centres undefined) | 1.94 | 4.5 µM | 2.78 | 7.9 µM | 1.9 µM | 4.29 µM | 0.649 µM | 2.31 µM | 2.51 µM | 8.99 µM | 3.84 µM | 17.5 µM | 1.24 µM | 3.27 µM | 1.45 | 3.8 µM | 1.62 µM | 3.14 µM | 1.68 µM | 3.5 µM
N[C@@H](Cc1ccc(N(CCCl)CCCl)cc1)C(=O)O | 6.96 | 11.6 µM and 33 µM | – | > 100 µM and 165 µM | 15.2 µM and 20.3 µM and 48.6 µM | 74.3 µM and 57.1 µM and 139 µM | 3.01 µM and 3.78 µM | > 100 µM and 29.2 µM and 103 µM | 30.6 µM and 32 µM | > 100 µM and 146 µM | 16.9 µM and 15.9 µM | 47.1 µM and 32.9 µM and 69.9 µM | 7.08 µM and 5.64 µM | > 100 µM and 52.2 µM and 148 µM | 17.4 | 33.5 µM and 112 µM | 37.6 µM and 20.2 µM | > 100 µM and 58.9 µM and 119 µM | 12.9 µM and 29.6 µM | 65.2 µM and 81.2 µM and 123 µM
O=C(O)c1cccc(F)c1C(=O)c1ccc2ccccc2c1 | – | > 100 µM | – | > 100 µM | – | > 100 µM | – | > 100 µM | – | > 100 µM | – | > 100 µM | – | > 100 µM | – | > 100 µM | – | > 100 µM | – | > 100 µM
N=C(N)c1ccc(-c2ccc(-c3ccccc3)o2)o1 | 2.18 | 5.2 µM | 3.81 | 21.2 µM | 2.89 µM | 11.8 µM | 2.45 µM | 5.82 µM | 2.82 µM | 11 µM | 2.33 µM | 6.55 µM | 2.98 µM | 12.3 µM | 2.25 | 4.2 µM | 2.52 µM | 6.35 µM | 1.54 µM | 3.13 µM
COc1ccccc1NC(=O)C(=O)C(C#N)CC(C)(C)C=O (centres undefined) | – | > 100 µM | – | > 100 µM | – | > 100 µM | – | > 100 µM | – | > 100 µM | – | > 100 µM | – | > 100 µM | – | > 100 µM | – | > 100 µM | – | > 100 µM
O=P1(NCCCl)OCCC(OO)N1CCCl (centres undefined) | – | > 51.9 µM | – | > 100 µM | – | > 100 µM | – | > 100 µM | – | > 100 µM | – | 32.4 µM | – | > 100 µM | – | > 100 µM | – | > 82.6 µM | – | > 100 µM
CN(CC(=O)O)Cc1c[nH]c2ccccc12 | – | > 100 µM | – | > 100 µM | – | > 100 µM | – | > 100 µM | – | > 100 µM | – | > 100 µM | – | > 100 µM | – | > 100 µM | – | > 100 µM | – | > 100 µM
